Values after ≈ are worked out from the molar mass of the structure shown.
How the values were obtained:
Cryptococcus neoformans = test: microbe, parasite or virus in culture; format: functional, organism-based; conditions: H99, 72 h
Description: Anti-cryptococcal activity against Cryptococcus neoformans H99 assessed as inhibition of fungal growth incubated for 72 hrs by microdilution method

[1] = […] in ICR mouse model of Cryptococcal meningitis infected with Cryptococcus neoformans H99 assessed as median survival time at 15 mg/kg, IG administered daily (reference value: 11 day); format: organism-based; conditions: in vivo, po, 264 h
[2] = Metabolic stability in mouse liver microsomes assessed as half life; format: ADME, Microsome
[3] = Metabolic stability in mouse liver microsomes assessed as clearance; format: ADME, Microsome

Row | Structure (SMILES) | IC50 (Cryptococcus neoformans) | other results
1 | Cl.Clc1ccc(C2CCC(NCCC3CCCCC3)c3ccsc32)c(Cl)c1 (stereo unspecified) | 4 µg/mL | –
2 | Nc1nc(=O)[nH]cc1F [FLUCYTOSINE] | 2 µg/mL (≈ 15.5 µM) | –
3 | CN[C@H]1CC[C@@H](c2ccc(Cl)c(Cl)c2)c2ccccc21 [SERTRALINE] | – | MST [1]: 11.5 days; half-life [2]: 41.5 min; CLH [3]: 132 µL/min/mg
4 | CNC1CC(c2ccc(Cl)c(Cl)c2)c2ccccc21.Cl (stereo unspecified) | 16 µg/mL | –
5 | O=C(c1ccc(F)cc1)C1CCN(CCn2c(=O)[nH]c3ccccc3c2=O)CC1 [KETANSERIN] | – | half-life [2]: 20.1 min; CLH [3]: 271 µL/min/mg

Continued, in another order:

Row | IC50 (Cryptococcus neoformans) | Structure (SMILES) | other results
6 | 32 µg/mL | Cl.Clc1ccc(C2CCC(NCc3ccccc3)c3ccsc32)cc1Cl (stereo unspecified) | –
7 | 16 µg/mL | CC(C)NC1CCC(c2ccc(Cl)c(Cl)c2)c2sccc21.Cl (stereo unspecified) | –
8 | 4 µg/mL | CC(C)(C)CNC1CCC(c2ccc(Cl)c(Cl)c2)c2sccc21.Cl (stereo unspecified) | –
9 | 32 µg/mL | Cl.Clc1ccc(C2CCC(NCc3ncccn3)c3ccsc32)cc1Cl (stereo unspecified) | –
10 | 8 µg/mL | CNC1CCC(c2ccc(Cl)c(Cl)c2)c2sccc21.Cl (stereo unspecified) | –
11 | 8 µg/mL | Cl.Clc1ccc(C2CCC(NC3CCCC3)c3ccsc32)cc1Cl (stereo unspecified) | –
12 | 4 µg/mL | Cl.Clc1ccc(C2CCC(NC3CCOCC3)c3ccsc32)cc1Cl (stereo unspecified) | –
13 | 2 µg/mL | Cl.Clc1ccc(C2CCC(NCC3CCCCC3)c3ccsc32)cc1Cl (stereo unspecified) | –

Source: ChEMBL document CHEMBL5154781, “Discovery of Novel Sertraline Derivatives as Potent Anti-Cryptococcus Agents” (J Med Chem, 2022)
